Results published in patent US20220107328A1, “METHODS OF TREATING LIVER DISEASES” (Camp4 Therapeutics Corporation, priority 2018, published 2022).

Assays:
[1] = tested on: PNPLA3 mRNA; assay: qRT-PCR of PNPLA3 mRNA in compound-treated mouse hepatocytes; format: cell-based; conditions: mouse hepatocytes, 1 μM, normalized to ACTB
Protocol: Analysis of the fold changes in expression as measured by qRT-PCR were performed using the technique below. The control was DMSO, and the treatment was the selected compound (CPD). The internal control was GAPDH or B-Actin (or otherwise indicated), and the gene of interest is the target. First, the averages of the 4 conditions were calculated for normalization: DMSO:GAPDH, DMSO:Target, CPD: GAPDH, and CPD:Target. Next, the ΔCT of both control and treatment were calculated to normalize to internal control (GAPDH) using (DMSO:Target)−(DMSO:GAPDH)=ΔCT control and (CPD:Target)−(CPD: GAPDH)=ΔCT experimental. Then, the ΔΔCT was calculated by ΔCT experimental−ΔCT control. The Expression Fold Change (or Relative Quantification, abbreviated as RQ) was calculated by 2−(ΔΔCT) (2-fold expression change was shown by RNA-Seq results provided herein).
Compounds were tested at concentrations ranging from 0.01 μM to 50 μM. […] PNPLA3 levels were normalized to the level of a house keeping gene ACTB.

[2] = tested on: PNPLA3 mRNA; assay: qRT-PCR of PNPLA3 mRNA in compound-treated primary human hepatocytes; conditions: for Primary Hepatocytes 4178 PNPLA3 (fold change in mRNA expression): donor 4178, 3 μM; for Primary Hepatocytes 4178 PNPLA3 (fold change in mRNA expression) / Primary Hepatocytes 4282 PNPLA3 (fold change in mRNA expression): relative to GUSB; for Primary Hepatocytes 4282 PNPLA3 (fold change in mRNA expression): donor 4282, 3 μM
[3] = tested on: PCSK9 mRNA; assay: qRT-PCR of PCSK9 mRNA in primary hepatocytes; format: cell-based, human; conditions: donor 4178, 3 μM, relative to GUSB
[4] = tested on: COL1A1 mRNA; assay: qRT-PCR of COL1A1 mRNA in human primary hepatic stellate cells; format: cell-based; conditions: 3 μM, relative to GAPDH
[5] = tested on: PNPLA3 mRNA; assay: qRT-PCR of PNPLA3 mRNA in human primary hepatic stellate cells; format: cell-based; conditions: 3 μM, relative to GAPDH

SMILES	Relative PNPLA3 mRNA levels [1]	Primary Hepatocytes 4178 PNPLA3 (fold change in mRNA expression) [2]	Primary Hepatocytes 4282 PNPLA3 (fold change in mRNA expression) [2]	Primary Hepatocytes 4178 PCSK9 (fold change in mRNA expression) [3]	Primary Stellate cells COL1A1 (fold change in mRNA expression) [4]	Primary Stellate cells PNPLA3 (fold change in mRNA expression) [5]	Relative PNPLA3 mRNA levels ([2]; Syk pathway inhibitors, 10 μM, human hepatocytes, normalized to B2M, mean of three replicates ± standard deviation)
CO[C@H]1C[C@@H]2CC[C@@H](C)[C@@](O)(O2)C(=O)C(=O)N2CCCC[C@H]2C(=O)O[C@H]([C@H](C)C[C@@H]2CC[C@@H](OP(C)(C)=O)[C@H](OC)C2)CC(=O)[C@H](C)/C=C(\C)[C@@H](O)[C@@H](OC)C(=O)[C@H](C)C[C@H](C)/C=C/C=C/C=C/1C [Deforolimus]	0.30 ± 0.10	–	–	–	–	–	–
O=c1c(O)c(-c2ccc(O)c(O)c2)oc2cc(O)cc(O)c12 [Quercetin]	–	1.16	0.93	0.95	0.94	1.11	–
CCOC(=O)C1=C(N)Oc2ccc(Cl)cc2C1C(C#N)C(=O)OCC (stereo not drawn) [SC79]	–	1.10	0.94	1.11	0.98	0.85	–
Cn1cc(-c2nc(N[C@@H]3CCCC[C@@H]3N)c(F)c3c2C(=O)NC3)cn1 [TAK-659]	0.31 ± 0.12	–	–	–	–	–	0.44 ± 0.11
Cc1nc(-c2cn3c(n2)-c2ccc(-c4cnn(C(C)(C)C(N)=O)c4)cc2OCC3)n(C(C)C)n1 [Taselisib (GDC 0032)]	–	0.72	0.62	0.67	1.32	0.77	–
CCn1c(=O)c(-c2cc[nH]n2)cc2c(C)nc(N)nc21 [Voxtalisib]	0.31 ± 0.08	–	–	–	–	–	–
c1cncc(CN2CCC(n3ncc4c(N5CCOCC5)nc(-c5ccc6[nH]ccc6c5)nc43)CC2)c1 [WAY600]	0.67 ± 0.21	–	–	–	–	–	–
FC(F)c1nc2ccccc2n1-c1nc(N2CCOCC2)nc(N2CCOCC2)n1 [ZSTK474]	–	0.60	0.80	0.66	0.71	0.68	–
CC(C)Oc1ccc(-c2nn([C@@H](C)c3oc4ccc(F)cc4c(=O)c3-c3cccc(F)c3)c3ncnc(N)c23)cc1F [umbralisib (TGR-1202)]	–	0.90	0.80	0.80	1.15	1.10	–
